The values below come from ChEMBL document CHEMBL2146453, “Synthesis of novel ursolic acid heterocyclic derivatives with improved abilities of antiproliferation and induction of p53, p21waf1 and NOXA in pancreatic cancer cells” (Bioorg Med Chem, 2012).

The structures appear in SMILES notation.

What all share (assay type): functional, cell-based
One assay relates to ASPC1. Description: Cytotoxicity against human AsPC1 cells after 72 hrs by MTT assay. As to conditions: ASPC1, 72 h.
For the next assay, the system named is PANC-1. In words: Cytotoxicity against human PANC1 cells after 72 hrs by MTT assay. The settings on record: PANC-1, 72 h.
The subject of another assay is MIA PaCa-2. Description: Cytotoxicity against human MIAPaCa2 cells after 72 hrs by MTT assay. The settings on record: MIA PaCa-2, 72 h.
For the next assay, the system named is HepG2. In words: Cytotoxicity against human HepG2 cells after 72 hrs by MTT assay. The settings on record: HepG2, 72 h.
Another assay deals with MCF7. Description: Cytotoxicity against human MCF7 cells after 72 hrs by MTT assay. As to conditions: MCF7, 72 h.
In the next assay the test system is A549. Description: Cytotoxicity against human A549 cells after 72 hrs by MTT assay. The settings on record: A549, 72 h.
The subject of another assay is PC-3. In words: Cytotoxicity against human PC3 cells after 72 hrs by MTT assay. As to conditions: PC-3, 72 h.

In the assay with ASPC1, `CC(=O)O[C@H]1CC[C@]2(C)[C@H]3CC=C4[C@@H]5[C@@H](C)[C@H](C)CC[C@]5(C(=O)n5ccnc5)CC[C@@]4(C)[C@]3(C)CC[C@H]2C1(C)C` gave an IC50 of 15.2 µM.

For the compound `COC(=O)[C@]12CC[C@@H](C)[C@H](C)[C@H]1C1=CC[C@@H]3[C@@]4(C)C/C(=C/n5ccnc5)C(=O)C(C)(C)[C@@H]4CC[C@@]3(C)[C@]1(C)CC2`, the IC50 in the assay on ASPC1 was 5.8 µM; in the assay on PANC-1, 5.1 µM; in the assay on MIA PaCa-2, 7.3 µM; with HepG2, 2 µM; with MCF7, 5.3 µM; in the assay with A549, 5.6 µM. The same compound showed an IC50 in the assay with PC-3 of 6.8 µM.

Compound `CC(=O)O[C@H]1CC[C@]2(C)[C@H]3CC=C4[C@@H]5[C@@H](C)[C@H](C)CC[C@]5(C(=O)O)CC[C@@]4(C)[C@]3(C)CC[C@H]2C1(C)C` [O-ACETYLURSOLIC ACID] displayed an IC50 with ASPC1 of 71 µM.

Compound `C[C@H]1[C@H](C)CC[C@]2(C(=O)n3cnnc3)CC[C@]3(C)C(=CC(=O)[C@@H]4[C@@]5(C)CCC(=O)C(C)(C)[C@@H]5CC[C@]43C)[C@H]12` showed a concentration for half-maximal inhibition (IC50) in the assay on ASPC1 of 9.9 µM. Against the preceding compound, the IC50 is about 7.2-fold lower.

`Cc1nccn1C(=O)[C@]12CC[C@@H](C)[C@H](C)[C@H]1C1=CC[C@@H]3[C@@]4(C)CCC(=O)C(C)(C)[C@@H]4CC[C@@]3(C)[C@]1(C)CC2` gave an IC50 with ASPC1 of 19.6 µM.

With `C[C@H]1[C@H](C)CC[C@]2(C(=O)O)CC[C@]3(C)C(=CC[C@@H]4[C@@]5(C)C/C(=C/O)C(=O)C(C)(C)[C@@H]5CC[C@]43C)[C@H]12`, the IC50 with ASPC1 worked out at 13.4 µM.

As for `COC(=O)[C@]12CC[C@@H](C)[C@H](C)[C@H]1C1=CC(=O)[C@@H]3[C@@]4(C)C/C(=C/O)C(=O)C(C)(C)[C@@H]4CC[C@@]3(C)[C@]1(C)CC2`, inhibition with ASPC1 was half-maximal at 9 µM (IC50).

As for `COC(=O)[C@]12CC[C@@H](C)[C@H](C)[C@H]1C1=CC(=O)[C@@H]3[C@@]4(C)C/C(=C/n5ccnc5C)C(=O)C(C)(C)[C@@H]4CC[C@@]3(C)[C@]1(C)CC2`, the concentration for half-maximal inhibition (IC50) is 2.1 µM in the assay with ASPC1; 14.4 µM with PANC-1; 8.3 µM in the assay on MIA PaCa-2; 8.5 µM in the assay on HepG2; 3.5 µM in the assay on MCF7; 18.7 µM in the assay on A549. This compound also displayed an IC50 with PC-3 of 5.7 µM.

`Cc1nccn1C(=O)[C@]12CC[C@@H](C)[C@H](C)[C@H]1C1=CC(=O)[C@@H]3[C@@]4(C)CCC(=O)C(C)(C)[C@@H]4CC[C@@]3(C)[C@]1(C)CC2`: the half-inhibitory concentration (IC50) with ASPC1 turned out to be 5.1 µM.

In the assay with ASPC1, `COC(=O)[C@]12CC[C@@H](C)[C@H](C)[C@H]1C1=CC[C@@H]3[C@@]4(C)CC[C@H](O)C(C)(C)[C@@H]4CC[C@@]3(C)[C@]1(C)CC2` [METHYL URSOLATE] returned an IC50 of 17.7 µM.

In turn, `CC(=O)O[C@H]1CC[C@]2(C)[C@H]3CC=C4[C@@H]5[C@@H](C)[C@H](C)CC[C@]5(C(=O)n5cnnc5)CC[C@@]4(C)[C@]3(C)CC[C@H]2C1(C)C` yielded an IC50 with ASPC1 of 23.3 µM.

Take `C[C@H]1[C@H](C)CC[C@]2(C(=O)n3cnnc3)CC[C@]3(C)C(=CC[C@@H]4[C@@]5(C)CCC(=O)C(C)(C)[C@@H]5CC[C@]43C)[C@H]12`: the IC50 with ASPC1 worked out at 19.2 µM.

Turning to `CC(=O)O[C@H]1CC[C@]2(C)[C@H]3CC=C4[C@@H]5[C@@H](C)[C@H](C)CC[C@]5(C(=O)n5ccnc5C)CC[C@@]4(C)[C@]3(C)CC[C@H]2C1(C)C`, the IC50 with ASPC1 was 20.2 µM.

As to `COC(=O)[C@]12CC[C@@H](C)[C@H](C)[C@H]1C1=CC(=O)[C@@H]3[C@@]4(C)C/C(=C/n5ccnc5)C(=O)C(C)(C)[C@@H]4CC[C@@]3(C)[C@]1(C)CC2`, the 50% inhibitory concentration (IC50) came to 2.3 µM in the assay with ASPC1; 18.2 µM in the assay on PANC-1; 24.3 µM in the assay on MIA PaCa-2; 27.6 µM with HepG2; 9.4 µM in the assay on MCF7; 12.2 µM with A549. Further, in the assay on PC-3, half-maximal inhibition (IC50) was put at 12.9 µM.

`CC(=O)O[C@H]1CC[C@]2(C)[C@H]3C(=O)C=C4[C@@H]5[C@@H](C)[C@H](C)CC[C@]5(C(=O)O)CC[C@@]4(C)[C@]3(C)CC[C@H]2C1(C)C` [11-OXOURSOLIC ACID ACETATE]: half-maximal inhibition with ASPC1 (IC50) was put at 33.5 µM. In other words, the double-digit micromolar range.

In turn, `C[C@H]1[C@H](C)CC[C@]2(C(=O)O)CC[C@]3(C)C(=CC(=O)[C@@H]4[C@@]5(C)CCC(=O)C(C)(C)[C@@H]5CC[C@]43C)[C@H]12` showed an IC50 with ASPC1 of 54.9 µM.

Consider `C[C@H]1[C@H](C)CC[C@]2(C(=O)n3ccnc3)CC[C@]3(C)C(=CC[C@@H]4[C@@]5(C)CCC(=O)C(C)(C)[C@@H]5CC[C@]43C)[C@H]12`, for which, in the assay on ASPC1, half-maximal inhibition (IC50) was put at 15.2 µM. Against the preceding compound, the IC50 is about 3.6-fold lower.

As for `CC(=O)O[C@H]1CC[C@]2(C)[C@H]3C(=O)C=C4[C@@H]5[C@@H](C)[C@H](C)CC[C@]5(C(=O)n5ccnc5)CC[C@@]4(C)[C@]3(C)CC[C@H]2C1(C)C`, in the assay on ASPC1, the IC50 was 13.9 µM.

On to `C[C@H]1[C@H](C)CC[C@]2(C(=O)O)CC[C@]3(C)C(=CC[C@@H]4[C@@]5(C)CC[C@H](O)C(C)(C)[C@@H]5CC[C@]43C)[C@H]12` [URSOLIC ACID], for which the IC50 stood at 12.6 µM in the assay on ASPC1; 14.9 µM in the assay on PANC-1; 10.4 µM in the assay with MIA PaCa-2; 15 µM with HepG2; 12.3 µM in the assay with MCF7; 11.4 µM with A549. In addition, inhibition with PC-3 was half-maximal at 20.8 µM (IC50).

In the assay with ASPC1, `CC(=O)O[C@H]1CC[C@]2(C)[C@H]3C(=O)C=C4[C@@H]5[C@@H](C)[C@H](C)CC[C@]5(C(=O)n5cnnc5)CC[C@@]4(C)[C@]3(C)CC[C@H]2C1(C)C` returned an IC50 of 10.2 µM.

In the assay on ASPC1, `CC(=O)O[C@H]1CC[C@]2(C)[C@H]3C(=O)C=C4[C@@H]5[C@@H](C)[C@H](C)CC[C@]5(C(=O)n5ccnc5C)CC[C@@]4(C)[C@]3(C)CC[C@H]2C1(C)C` displayed a 50% inhibitory concentration (IC50) of 15.3 µM.

As to `COC(=O)[C@]12CC[C@@H](C)[C@H](C)[C@H]1C1=CC(=O)[C@@H]3[C@@]4(C)C/C(=C/n5cnnc5)C(=O)C(C)(C)[C@@H]4CC[C@@]3(C)[C@]1(C)CC2`, the IC50 in the assay on ASPC1 worked out at 8.1 µM; in the assay with PANC-1 it was 12.1 µM; in the assay with MIA PaCa-2, 7.8 µM; in the assay on HepG2, 7.9 µM; in the assay with MCF7, 12.5 µM; with A549 it was 12.9 µM. It took 9.5 µM to reach half-maximal inhibition with PC-3 (IC50).

As to `C[C@H]1[C@H](C)CC[C@]2(C(=O)O)CC[C@]3(C)C(=CC[C@@H]4[C@@]5(C)CCC(=O)C(C)(C)[C@@H]5CC[C@]43C)[C@H]12` [URSONIC ACID], half-maximal inhibition in the assay on ASPC1 (IC50) was put at 24.5 µM.

Take `COC(=O)[C@]12CC[C@@H](C)[C@H](C)[C@H]1C1=CC[C@@H]3[C@@]4(C)C/C(=C/n5ccnc5C)C(=O)C(C)(C)[C@@H]4CC[C@@]3(C)[C@]1(C)CC2`: the half-maximal inhibitory concentration (IC50) in the assay with ASPC1 came out at 2.1 µM; in the assay on PANC-1, 5.6 µM; in the assay on MIA PaCa-2 it was 5.6 µM; in the assay with HepG2, 4 µM; in the assay on MCF7, 2.2 µM; in the assay with A549, 5.3 µM. Moreover, the IC50 with PC-3 was found to be 3.5 µM.

In the assay on ASPC1, `C[C@H]1[C@H](C)CC[C@]2(C(=O)n3cnnc3)CC[C@]3(C)C(=CC[C@@H]4[C@@]5(C)C/C(=C/n6cnnc6)C(=O)C(C)(C)[C@@H]5CC[C@]43C)[C@H]12` gave an IC50 of 3.9 µM. This counts as single-digit micromolar.

In the assay on ASPC1, `Cc1nccn1/C=C1/C[C@]2(C)[C@H]3CC=C4[C@@H]5[C@@H](C)[C@H](C)CC[C@]5(C(=O)n5ccnc5C)CC[C@@]4(C)[C@]3(C)CC[C@H]2C(C)(C)C1=O` returned an IC50 of 11.3 µM.

For the compound `COC(=O)[C@]12CC[C@@H](C)[C@H](C)[C@H]1C1=CC[C@@H]3[C@@]4(C)C/C(=C/O)C(=O)C(C)(C)[C@@H]4CC[C@@]3(C)[C@]1(C)CC2`, in the assay on ASPC1, the half-maximal inhibitory concentration (IC50) was found to be 7.2 µM.

On to `C[C@H]1[C@H](C)CC[C@]2(C(=O)n3ccnc3)CC[C@]3(C)C(=CC[C@@H]4[C@@]5(C)C/C(=C/n6ccnc6)C(=O)C(C)(C)[C@@H]5CC[C@]43C)[C@H]12`, for which the IC50 in the assay with ASPC1 is 5.1 µM.

As for `C[C@H]1[C@H](C)CC[C@]2(C(=O)n3ccnc3)CC[C@]3(C)C(=CC(=O)[C@@H]4[C@@]5(C)CCC(=O)C(C)(C)[C@@H]5CC[C@]43C)[C@H]12`, the IC50 in the assay with ASPC1 came to 11.7 µM. Against the preceding compound, the IC50 is about 2.3-fold higher.
